Results from US20240239895A1, “COMBINATION THERAPY WITH A RAF INHIBITOR AND A PD-1 AXIS INHIBITOR” (Genentech, Inc., priority 2021, published 2024).

Legend:
[1] = K1735 syngeneic mouse model, body weight and clinical signs; assay type: in vivo
Method: Body weight. Body weight measurement was performed twice a week during the dosing period.
Relative body weight. Relative body weight (%)=body weight (g)/initial body weight (g)×100.
Maximum weight loss (MWL). MWL was the highest recorded weight loss (%) among the measured weight loss (%).

[2] = test system: BRAF- and NRAS-mutant melanoma, KRAS mutant NSCLC, BRAF mutant CRC xenografts; experiment: mouse xenograft models, monotherapy; assay type: in vivo
Text: The in vitro antitumor effects of belvarafenib have translated into efficacy in various mouse xenograft models.

[3] = test system: K1735 melanoma cells carrying the NRASG13D mutation; experiment: K1735 syngeneic mouse model, tumor growth; assay type: in vivo
Text: Example 1 evaluated the efficacy of belvarafenib monotherapy, atezolizumab monotherapy, a combination therapy of belvarafenib and atezolizumab in a mutant K1735 subcutaneous mouse model.
The mouse strain was C3H/HeNCrlOri which is widely used for the K1735 syngeneic model. The mice were supplied by Orient Bio Inc., Korea.
The cell line was K1735 and was supplied by the American Type Culture Collection (ATCC). The K1735 cells are melanoma cells carrying the NRASG13D mutation. The cell culture in vitro media was Roswell Park Memorial Institute (RPMI) 10% fetal bovine serum (FBS) and incubation was at 5% C02 and 37° C. For the K1735 syngeneic model, cancer cells (1.5×10^8 cells/10 mL) were mixed with Hank's balanced salt solution (HBSS) and injected subcutaneously at 0.1 mL/head. Seven animals per group were treated with the vehicle (control), belvarafenib monotherapy at 7.5 mg/kg, belvarafenib monotherapy at 15 mg/kg, atezolizumab monotherapy at 10 mg/kg, belvarafenib (7.5 mg/kg) and atezolizumab (10 mg/kg) combination therapy, and belvarafenib (15 mg/kg) and atezolizumab (10 mg/kg) combination therapy. The experiment was done using 1st generation tumor tissue.
Belvarafenib dihydrochloride, 99.6% purity, that was stored at room temperature was used. Dosing was based on active ingredient free base and was corrected for assay and water content. The dosing vehicle was DMSO (5%), cremophore EL (5%), and deionized water (90%). Belvarafenib for dosing was dissolved in the vehicle. Belvarafenib oral doses of 7.5 mg/kg and 15 mg/kg were evaluated as monotherapies and in combination with atezolizumab. Belvarafenib was dose daily for 21 days.
Atezolizumab (TECENTRIQ©) that was stored at 2-8° C. was used. The dosing vehicle was saline and the dosing concentration was 5 mL/kg. An atezolizumab intravenous dose of 10 mg/kg was evaluated as a monotherapy and in combination with 7.5 mg/kg and 15 mg/kg belvarafenib. Atezolizumab was dosed three times a week for 3 weeks.
Tumor size. Tumor size was assessed by digital caliper (MITUTOYO CD-15CPX, MonotaRO Singapore, Japan) twice a week during the dosing period and calculated using the formula for an ellipsoid sphere (V=L×S2/2=mm3, where L=long diameter, and S=short diameter). Tumor size was recorded on the day of the body weight measurement and data was recorded on a tumor volume record sheet.
Relative tumor volume (RTV). RTV(%)=tumor volume/initial tumor volume×100.
Tumor Growth (TG). TG (%)=RTVdayx/RTVday0×100.
Relative tumor growth (RTG). The ratio of mean tumor volume on last measurement day to the mean tumor volume on Day 0.
Inhibition rate (IR). Inhibition of tumor growth was calculated relative to vehicle-treated controls. IR (%)=(1−mean relative tumor weight in treated group/mean relative tumor weight in control group)×100.
Maximum inhibition rate (MIR). MIR was the highest recorded IR (%) among the measured inhibition rate (%).
Statistical analysis of tumor size was performed with GraphPad Prism version 6 (GraphPad software, Inc., USA). Values were expressed as S.E.M. The significance of differences among multiple groups was assessed using a 2-way ANOVA. Post hoc pairwise comparison between groups was tested for significance using Dennett's method.

[4] = test system: BRAF- or RAS-mutant melanoma, NSCLC, CRC, and thyroid cancer cell lines; experiment: growth of cancer cell lines in vitro; assay type: cell-based
[5] = test system: phosphorylation of MEK and ERK in the MAPK pathway; experiment: MEK and ERK phosphorylation in cancer cell lines; assay type: cell-based; settings: BRAF- or RAS-mutant melanoma, NSCLC, and CRC cell lines
[6] = test system: tumor infiltrated CD3+CD8+ T cells; experiment: flow cytometry of tumor infiltrated CD3+CD8+ T cells, K1735 model; assay type: in vivo, mouse; settings: belvarafenib 15 mg/kg oral QDx21; tumor tissue at end of experiment
Method: Flow cytometry was used for tumor infiltrated CD3+CD8+ T cells analysis using BD FACSCanto™ IL (BD Biosciences) and FlowJo™ v 10.6.2 software (BD Biosciences). At the end of the experiment, tumor tissue, excluding mono and combination therapy groups using belvarafenib 7.5 mg/kg, were collected for evaluation of pharmacodynamics. Tumors were surgically dissected, washed twice with phosphate-buffered saline (PBS), and then chopped into 1 mm3 pieces. The chopped tumor pieces were digested in 7 mL of dissociation medium (RPMI medium with 10% FBS, collagenase type II at 2 mg/mL, collagenase type IV at 2 mg/mL, and DNase I at 1 mg/mL) for 30 minutes at 37° C., and filtered through a 70 μm cell strainer (BD Pharm, USA). The filtered cells were then washed twice with PBS. Remaining red blood cells were lysed using ammonium-chloride-potassium (ACK) solution. The cells, which had dissociated into single cells, were stained with Fe block (anti CD16/32, Ref. 14-0161-82, Invitrogen, USA) at 4° C. for 15 minutes to prevent nonspecific antibody binding. The cells were then stained with appropriate antibodies at 4° C. for 30 minutes. To assess the presence of CD3+CD8+ T cell population, cells were stained with PE Cy7-conjugated anti-CD3e (1:100 dilution) (clone: 145-2C11, Invitrogen, USA) and FITC-conjugated anti-CD8a (1:100 dilution) (clone: 53-6.7, Invitrogen, USA).

[7] = Phase I relative bioavailability and food effect study in healthy subjects; assay type: in vivo; settings: 200 mg single dose
Method: In another Phase I, single dose, randomized, crossover relative bioavailability and food effect study in healthy subjects, the influence of a formulation change from the Phase I to Phase II tablet on belvarafenib exposure was evaluated. A total of 18 healthy subjects were enrolled in the study and received the following randomized treatments: one 150-mg and one 50-mg Phase I tablet in a fed state, two 100-mg Phase II tablets in a fed state, or two 100-mg Phase II tablets in a fasted state, with a 18-day washout between treatments.

[8] = belvarafenib 7.5 mg/kg oral QDx21
[9] = belvarafenib 15 mg/kg oral QDx21

Cc1ccc2c(Nc3cccc(Cl)c3F)nccc2c1NC(=O)c1csc2c(N)ncnc12 [Belvarafenib, 4-amino-N-(1-((3-chloro-2-fluorophenyl)amino)-6-methylisoquinolin-5-yl)thieno[3,2-d]pyrimidine-7-carboxamide]
MWL / Max Wt. (maximum weight loss) [1, 8]: 2.8% | MWL / Max Wt. (maximum weight loss) [1, 9]: 2.2% | inhibition of tumor growth [2]: dose-dependent inhibition of tumor growth | MIR / Max Inhib. (maximum inhibition rate) [3, 8]: 48.2% | MTV21 (mean tumor volume on day 21 of treatment) [3, 8]: 2014.8 mm^3 | RTG (relative tumor growth) [3, 8]: 12.2 | MIR / Max Inhib. (maximum inhibition rate) [3, 9]: 54.7% | MTV21 (mean tumor volume on day 21 of treatment) [3, 9]: 1816.8 mm^3 | RTG (relative tumor growth) [3, 9]: 11.0 | IR (Day 21) (inhibition rate, tumor growth inhibition) [3, 8]: 48.2% | IR (Day 21) (inhibition rate, tumor growth inhibition) [3, 9]: 54.7% | inhibition of cell line growth [4]: inhibit the growth | inhibition of phosphorylation of MEK and ERK [5]: inhibits phosphorylation of MEK and ERK | CD3^+CD8^+ T cells (%) [6]: 1.27% | serious adverse events, adverse events of special interest, deaths [7]: No serious adverse events, adverse events of special interest, or deaths were reported
